EP4631931A1, “HDAC INHIBITOR AND USE THEREOF” (Wigen Biomedicine Technology (Shanghai) Co., Ltd., priority 2022, dated 2024)

Legend:
Jurkat cell = test: Inhibition of Jurkat cell proliferation (CTG, intracellular ATP); format: cell-based; details: Homo sapiens, 72 h, compared to DMSO group, read-out: Inhibitory activity against Jurkat cell proliferation (IC50)
Method: (§1) Jurkat or 293T cells were seeded into a 96-well plate at 3000 cells/well. After overnight adherence culture, the serially diluted compound in DMSO was added. After 72 h, the intracellular ATP level was determined by CTG. The IC50 for the inhibition of cell proliferation by the compounds was calculated compared to the DMSO group. Table 8. Inhibitory activity of compounds of the present disclosure against Jurkat/293T cell proliferation (IC50, µM)

[1] = tested on: Mouse colon cancer MC38 cells; test: In vivo efficacy in MC-38 model; parameters: species or system C57BL6N mice; details: small molecules 15mg/kg PO QD, PD-1 1mg/kg IV QW, BDO 2mg/kg IP QW, 21 days; for TGI(%): 6 mice per group
Method: (§2) Female C57BL6N mice (aged 6 weeks, 18-22 g) were provided by Vital River Laboratory Animal Technology Co., Ltd. (China) and used one week after quarantine and acclimation. All animals were kept in a room at 23±2 °C with a relative humidity of 50±5%, artificial lighting was provided from 08:00 to 20:00 every day, and the air was exchanged 13-18 times per hour. Mouse colon cancer MC38 cells were cultured conventionally in 1640 medium containing 10% fetal bovine serum in an incubator at 37 °C with 5% CO2. After being subcultured, the cells were collected when they reached the desired amount. The C57BL6N mice were subcutaneously injected with 2 × 10^6 MC38 cells on the right side to form tumors. After the tumors grew to about 100 mm^3, the animals were randomly grouped for administration. Tumor volumes were measured with a caliper on day 3, day 7, day 10, day 14, day 17, and day 21 after the administration. […] The toxicity of the compounds was evaluated according to the body weight and state of the mice.
Table 15. In vivo efficacy of some of the compounds of the present disclosure in MC-38 model

[2] = Pharmacokinetic experiment in mice; format: in vivo, CD-1 female mice; details: female, CD-1, mouse, plasma; for Vd: read-out: Vdss
Method: CD-1 female mice aged 7 to 10 weeks were intravenously administered and orally administered at doses of 1 mg/kg and 10 mg/kg, respectively. The mice were fasted for at least 12 h before the administration and given food 4 h after the administration, and they were given ad libitum access to water during the experiment.
On the day of the experiment, animals in the intravenous group were given the corresponding compound by single injection via the tail vein at an administration volume of 10 mL/kg; and animals in the oral group were given the corresponding compound by single intragastric injection at an administration volume of 10 mL/kg. The animals were weighed before administration, and the administration volume was calculated according to the body weight. The sample collection time points were 0.083 h, 0.167 h, 0.5 h, 1 h, 2 h, 4 h, 8 h, and 24 h. About 200 µL of whole blood was collected through the orbital venous plexus at each time point and used to prepare plasma for concentration determination by high-performance liquid chromatography-tandem mass spectrometry (LC-MS/MS). The plasma concentrations were processed using a non-compartmental model of Winnolin pharmacokinetic software, and the pharmacokinetic parameters were calculated using a linear-log trapezoidal method. Table 13. Results of in vivo pharmacokinetic evaluation of compounds of the present disclosure

[3] = Stability in liver microsomes; format: in vitro ADME; details: 1 µM compound, NADPH, 37 °C
Method: After the 1 µM compound was incubated with 0.5 mg/mL of human or mouse liver microsomes and an NADPH regeneration system at 37 °C for different times, respectively, LC-MS-MS was used to analyze the remaining amount of the compound and calculate T1/2. Table 12. Evaluation results of stability of compounds of the present disclosure in human and mouse liver microsomes

OVCAR 3 cells = test: NK cell-mediated tumor cell killing (NK92 cells, GFP count); format: cell-based; details: Homo sapiens, 72 h compound, 1-4 h co-culture, compared to DMSO group, read-out: EC50 in promoting the NK92 cell-mediated OVCAR 3 cell death
Method: OVCAR 3 cells […] expressing GFP were seeded into a 96-well plate at 4000 cells/well. After overnight adherence culture, the serially diluted compounds were added, and the plate was incubated for another 72 h. After the two types of cells were mixed and cultured for another 1-4 h, NK92 cells were removed by washing with PBS, and adherent GFP-positive tumor cells were counted. The EC50 of the compounds in promoting the NK92 cell-mediated OVCAR 3 cell death was calculated compared to the DMSO group. Table 11. NK cell-mediated tumor cell killing by compounds of the present disclosure

[4] = tested on: Mouse colon cancer CT-26 cells; test: In vivo efficacy in CT-26 model; parameters: species or system BALB/c mice; details: small molecules 15mg/kg PO QD, PD-1 1mg/kg IV QW, BDO 2mg/kg IP QW, 21 days; for TGI(%): 6 mice per group
Method: as §2, with “BALB/c” for “C57BL6N”, “CT-26” for “MC38”, “10^5 CT-26” for “10^6 MC38”
Table 16. In vivo efficacy of some of the compounds of the present disclosure in CT-26 model

293T cell = test: Inhibition of 293T cell proliferation (CTG, intracellular ATP); format: cell-based; details: Homo sapiens, HEK-293T, 72 h, compared to DMSO group, read-out: Inhibitory activity against 293T cell proliferation (IC50)
Method: as §1

[5] = Injection (1 mg/kg), intravenous
[6] = Human liver microsomes 0.5 mg/mL
[7] = Mouse liver microsomes 0.5 mg/mL

IC50 (Jurkat cell)	AUC(0-t) [2, 5]	clearance [2, 5]	half-life [2, 5]	Vd [2, 5]	AUC(0-t) ([2]; Oral administration (10 mg/kg))	Cmax ([2]; Oral administration (10 mg/kg))	Tmax ([2]; Oral administration (10 mg/kg))	bioavailability ([2]; Oral administration (10 mg/kg))	half-life ([2]; Oral administration (10 mg/kg))	CLint scaled at 1 µM [3, 6]	Clliver [3, 6]	half-life at 1 µM [3, 6]	CLint scaled at 1 µM [3, 7]	Clliver [3, 7]	half-life at 1 µM [3, 7]	SMILES	Change in body weight [1]	TGI(%) [1]	EC50 (OVCAR 3 cells)	Change in body weight [4]	other results
1620 nM	539 ng·h/mL	33.9 mL/min/kg	2.03 h	1.55 L/kg	2490 ng·h/mL	3750 ng/mL	0.17 h	46.1%	3.51 h	20.9 mL/min/kg	10.41 mL/min/kg	1.38 h	222 mL/min/kg	64.04 mL/min/kg	0.41 h	Nc1cc(F)ccc1NC(=O)c1ccc(CNC(=O)/C=C/c2cccnc2)cc1 [Chidamide, reference compound]	+21.1%	8.9%	161 nM	+21.1%	TGI(%) [4]: 8.9%; IC50 (293T cell): 6710 nM
590 nM	453 ng·h/mL	36.8 mL/min/kg	1.28 h	1.13 L/kg	2360 ng·h/mL	1330 ng/mL	0.17 h	52%	3.13 h	7.95 mL/min/kg	5.74 mL/min/kg	3.64 h	231 mL/min/kg	64.79 mL/min/kg	0.393 h	[2H]c1cc(C(=O)Nc2ccc(F)cc2N)ccc1CNC(=O)/C=C/c1cccnc1 [Compound 5, (E)-N-(2-amino-4-fluorophenyl)-4-((3-(pyridin-3-yl)acrylamido)methyl)-3-d benzamide]	+24.2%	12.2%	33.7 nM	+24.2%	TGI(%) [4]: 12.2%; IC50 (293T cell): > 10000 nM
